Data as given in patent US9274101B2 (BIOLOG, Inc., priority 2001, dated 2016).
Where a SMILES comes first, the peptide text is derived from it.

Assays:
[1] = system: ten strains of E. coli; type: cell-based, Escherichia coli
[2] = system: E. coli MG1655; type: cell-based, Escherichia coli

SMILES	carbon source utilization [1]	suitability as nitrogen source (growth, purple color) [2]	carbon source utilization (text) [1]
NCCO [2-amino ethanol]	−	not suitable	
Nc1ncnc2c1ncn2[C@@H]1O[C@H](CO)[C@@H](O)[C@H]1O [Adenosine]	+	not suitable	
C[C@@H](N)C(=O)O [D-alanine]	+	positive	
N[C@H](CC(=O)O)C(=O)O [D-aspartic acid]	−	not suitable	
N[C@H](CO)C(=O)O [D-serine]	+ and −	not suitable	
NC(=O)[C@@H](O)[C@@H](O)[C@H](O)[C@@H](O)C=O [Glucuronamide]	+	not suitable	
NCC(=O)N[C@@H](CCC(=O)O)C(=O)O [Glycyl-L-glutamic acid] (H-Gly-Glu-OH)	+	positive	
C[C@H](N)C(=O)O [L-alanine]	+	not suitable	
C[C@H](N)C(=O)NCC(=O)O [L-alanyl-glycine] (H-Ala-Gly-OH)	+	positive	
N[C@@H](CC(=O)O)C(=O)O [L-aspartic acid]	+ and −	positive	
N[C@@H](CCC(=O)O)C(=O)O [L-glutamic acid]	+ and −	positive	negative
O=C(O)[C@@H]1CCCN1 [L-proline]	+ and −	positive	negative
N[C@@H](CO)C(=O)O [L-serine]	+	not suitable	
C[C@@H](O)[C@H](N)C(=O)O [L-threonine]	+ and −	not suitable	negative
CC(=O)N[C@H]1C(O)O[C@H](CO)[C@@H](O)[C@@H]1O (stereo partly drawn) [N-acetyl-D-glucosamine]	+	positive	
CC(=O)N[C@H]1[C@@H](O)[C@H](O)[C@@H](CO)O[C@H]1O [N-acetyl-β-D-mannosamine]	+ and −	not suitable	
NCCc1ccccc1 [Phenylethyl amine]	−	not suitable	
NCCc1ccc(O)cc1 [Tyramine]	−	not suitable	
C[C@H](N)C(=O)N[C@@H](Cc1cnc[nH]1)C(=O)O [ala-his] (H-Ala-His-OH)		not suitable	
C[C@H](N)C(=O)N[C@H](C(=O)O)[C@@H](C)O [ala-thr] (H-Ala-Thr-OH)		positive	
O=C1NC(=O)C(=O)C(=O)N1 [alloxan]		not suitable	
CCN [ethylamine]		not suitable	
NCCN [ethylenediamine]		not suitable	

SMILES	carbon source utilization [1]	suitability as nitrogen source (growth, purple color) [2]	carbon source utilization (text) [1]
NC=O [formamide]		not suitable	
C[C@H](NC(=O)CN)C(=O)O [gly-ala] (H-Gly-Ala-OH)		positive	
NCC(=O)N[C@@H](CC(N)=O)C(=O)O [gly-asn] (H-Gly-Asn-OH)		positive	
NCC(=O)N[C@@H](CCC(N)=O)C(=O)O [gly-gln] (H-Gly-Gln-OH)		positive	
CSCC[C@H](NC(=O)CN)C(=O)O [gly-met]		positive	
NCC(=O)O [glycine]		positive	
O=C(O)CNC(=O)c1ccccc1 [hippuric acid]		not suitable	
NCCc1c[nH]cn1 [histamine]		not suitable	
CC(O)C(N)=O (stereo not shown) [lactamide]		not suitable	
CSCC[C@H](N)C(=O)N[C@@H](C)C(=O)O [met-ala] (H-Met-Ala-OH)		not suitable	
CCCCCN [n-amylamine]		not suitable	
CCCCN [n-butylamine]		not suitable	
O=[N+]([O-])[O-].[K+] [potassium nitrate]		not suitable	
NCCCCN [putrescine]		not suitable	
O=NO [sodium nitrite]		not suitable	
Cc1c[nH]c(=O)[nH]c1=O [thymine]		not suitable	
NC(N)=O [urea]		not suitable	
O=c1[nH]c(=O)c2[nH]c(=O)[nH]c2[nH]1 [uric acid]		not suitable	
O=C(O)/C=C/c1c[nH]cn1 [urocanic acid]		not suitable	
O=c1[nH]c(=O)c2[nH]cnc2[nH]1 [xanthine]		not suitable	
O=c1[nH]c(=O)c2ncn([C@@H]3O[C@H](CO)[C@@H](O)[C@H]3O)c2[nH]1 [xanthosine]		not suitable	
NCCCCC(=O)O [δ-amino-n-valeric acid]		positive	
NCCCCCC(=O)O [ε-amino-n-caproic acid]		not suitable	
